Experimental data from article PMC8512853, “Synthesis, Bioactivity, Pharmacokinetic and Biomimetic Properties of Multi-Substituted Coumarin Derivatives” (Molecules, 2021).

What was measured:
[1] = IAM chromatography (IAM.PC.DD.2 column) and estimated human oral absorption; type: in vitro ADME; conditions: for %HOA estimated human oral absorption: Equation (1) from logkw and physicochemical properties; for logkw (IAM retention factor): pH 7.40, IAM.PC.DD.2, intercept at pure aqueous phase
Description: The immobilized artificial membrane (IAM) chromatographic behavior of the 25 novel coumarin derivatives was studied. IAM stationary phases consisting of monolayers of phospholipids (e.g., phosphatidylcholine, PC) immobilized on a propylamine–silica support can simulate interactions of chemicals with cell membranes.
Using an IAM.PC.DD2 column (Regis Technologies) as the stationary phase with PBS as the mobile phase at pH = 7.40, and a flow rate of 3 mL/min in the presence of acetonitrile fractions (C%) of 10%, 15%, 20%, 25%, and 30%, a logkC% value was obtained via the retention time for each concentration of CH3CN. Retention factors were then used to plot logkC% as a function of acetonitrile fraction. The intercept of the linear regression corresponds to the logkw, corresponding to pure aqueous phase.
(1) % HOA=100/1+10^−(2.17+0.88*logkw−0.006*MW−0.83*A−0.53*F^*++1.18*F^*−)
(§1) The physicochemical and biomimetic properties of the new coumarin analogues were studied using liquid chromatography (HPLC) in 220–230 nm Two types of chromatographic columns were used: (i) immobilized artificial membrane (IAM) ([…].PC.DD.2, Regis Technologies) column and (ii) human serum albumin (HSA) (CHIRAL PAK) column.
(§2) The training set consisted of 25 neutral and slightly acidic compounds. Their IAM retention factors were measured at pH 7.40 on a IAM.PC.DD.2 column. The mobile phase consisted of acetonitrile solvent (CH3CN) in various concentrations (10%, 15%, 20%, 25%, 30%) and a flow rate of 3 mL/min was selected. Their HSA retention factors were measured at pH 7.00 on HSA column. The mobile phase consisted of acetonitrile solvent (CH3CN) in 10% concentration and a flow rate of 1 mL/min was selected.
(§3) The different pH values (7.00 for HSA and 7.40 for IAM) were measured with an electronic pH meter MP125 and were achieved by preparing suitable buffers of phosphates and chlorides (0.12 g KH2PO4, 0.72 g Na2HPO4·2H2O, 4.00 g NaCl and 0.10 g KCl). Sodium citrate solution was used to determine the dead time, which was deducted from the results at the end of measurements. The elution time of each coumarin analogue was measured at least three times. Retention times were converted into logk values, which represent the logarithm of the retention indexes, using Equation (8). (8) logk=log(tr−t0/t0) where tr is the retention time of the coumarin derivative and t0 is the dead time.

[2] = ABTS radical scavenging assay; conditions: 6 min
Description: The ABTS radical cation scavenging assay is a decolorization assay frequently used as an antioxidant activity estimation protocol. […] The absorbance is measured at 734 nm and the antioxidant capacity is compared to a standard antioxidant solution, such as ascorbic acid.
For the evaluation of antioxidant activity, the scavenging capacities of all samples were measured via the ABTS assay, as previously described by Kontogiorgis et al. with some modifications. Briefly, an ethanolic standard ABTS solution (7 mM) was prepared by the addition of ABTS salt and potassium persulfate. […] Each sample was diluted in DMSO and tested in triplicate. The tested mixture contained 10–20 µL of sample and 990–980 µL of the ABTS solution, for a total volume of 1 ml. Blank samples contained equal amounts of DMSO instead of the coumarin analogues, and ascorbic acid was used as a reference sample for the final evaluation of the ABTS scavenging capacity. All mixtures were stored at room temperature to allow decolorization and measured after 6 min. The percentage reduction of the ABTS radical was evaluated according to the following Equation (3):(3) % Reduction=Control OD (mean)−Sample OD (mean)/Control OD (mean)×100

[3] = Hydroxyl (HO•) free radical scavenging assay (competition with DMSO)
Excerpt: The hydroxyl (HO^•) free radical is considered as the most toxic and reactive radical among the ROS, leading to cellular or protein damage, membrane destruction, and even to cellular death when encountered in excess concentration. In this context, the evaluation of the hydroxyl radical scavenging activity of the coumarin analogues was essential. Hydroxyl radicals are mainly produced by the Haber–Weiss reaction in the presence of iron or copper ions. In this protocol, iron-EDTA solution, which catalyzes the autooxidation of ascorbic acid, was used as the hydroxyl radical generation system. In general, the hydroxyl radicals formed oxidize the DMSO to form formaldehyde. The reaction involves the initial interaction of DMSO with the hydroxyl radicals to give methyl radicals, with the final product being formaldehyde, which is determined by Nash method. The intensity of the yellow solution formed was measured at 412 nm against a reagent blank.
For the evaluation of hydroxyl radical scavenging ability, the protocol described by Kontogiorgis et al. was used. In short, each sample was tested in quadruplicate (A, B, C, D). For A and B, 10 μL of coumarin analogs diluted in DMSO (100 mM) were added; for C and D were the respective blanks. Standards (containing DMSO solution) and blanks were all prepared in a similar manner; to the latter an equal amount (10 µL) of solvent was added instead of the tested analogues. According to the protocol described by Klein et al., standard solutions of EDTA, FeCl3, ascorbic acid, and buffer solution (pH 7.4) were also added to each of the tested mixtures. All mixtures were incubated at 37 °C for 30 min, and then 1 mL of Nash solution and […] of CCl3COOH solution were added. After a 10min incubation at 60 °C to allow the formation of the yellow mixture, the absorbance was measured at […].
The results were calculated as performance percentages in relation to the respective standards and blanks according to the following Equation (4):(4) % Scavenging ability= Mean OD(A+B)−Mean OD(C+D)/Mean OD(A+B)

[4] = target: T1, human serum albumin (HSA) (Homo sapiens, UniProt P02768); experiment: HSA chromatography and estimated plasma protein binding; type: in vitro ADME; conditions: for fraction unbound: human, immobilized human serum albumin (HSA) column, Equation (2) from logk10, pH 7.00, read-out: %PPB estimated plasma protein binding (converted); for logk10 (HSA retention factor): pH 7.00, 10% acetonitrile
T1 construct: purchased CHIRAL PAK
T1 sequence (P02768 25-609): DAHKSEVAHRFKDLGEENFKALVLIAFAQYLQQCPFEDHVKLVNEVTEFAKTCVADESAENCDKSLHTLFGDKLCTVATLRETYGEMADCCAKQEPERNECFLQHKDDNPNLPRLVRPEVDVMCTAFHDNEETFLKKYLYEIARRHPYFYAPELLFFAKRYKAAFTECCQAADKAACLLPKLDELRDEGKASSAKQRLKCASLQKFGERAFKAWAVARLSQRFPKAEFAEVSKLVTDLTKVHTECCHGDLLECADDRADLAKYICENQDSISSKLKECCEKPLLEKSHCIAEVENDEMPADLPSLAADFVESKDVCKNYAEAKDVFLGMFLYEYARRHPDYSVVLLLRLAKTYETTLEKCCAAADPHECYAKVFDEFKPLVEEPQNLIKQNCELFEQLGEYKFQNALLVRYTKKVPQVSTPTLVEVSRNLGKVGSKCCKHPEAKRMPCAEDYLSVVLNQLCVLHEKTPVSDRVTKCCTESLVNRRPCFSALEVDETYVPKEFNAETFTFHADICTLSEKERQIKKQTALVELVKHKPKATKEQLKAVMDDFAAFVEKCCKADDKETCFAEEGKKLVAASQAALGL
Description: The novel coumarin derivatives were also studied using the immobilized protein column HSA. An HSA chromatographic column provides estimates on the binding affinities of chemicals to human serum albumin, which is the most abundant plasma protein and is related to drug efficacy, drug—drug pharmacokinetic interactions, and drug safety. HSA binding can be considered to represent almost the total plasma protein binding of a drug.
Retention factors on the HSA stationary phase were measured using as eluent PBS at pH = 7.00 and a flow rate of 1 mL/min in the presence of 10% acetonitrile.
(2) % PPB=101∗10^logk10/1+10^logk10
as §1, §2, §3

Compound	%HOA estimated human oral absorption [1] [%]	logkw (IAM retention factor) [1]	ABTS^•+ % (100 μΜ) [2]	HO^• % (100 μΜ) scavenging [3] [%]	fraction unbound [4]	logk10 (HSA retention factor) [4]
CC(=O)Oc1cccc2oc(=O)c(-c3cccc(Cl)c3)c(C)c12 [Compound 3b, 5-acetyloxy-3-(3-chlorophenyl)-4-methyl-chromen-2-one]	99.8	2.88	1.9%	96.4	0.128	0.80
Cc1c(-c2ccccc2Cl)c(=O)oc2cccc(O)c12 [Compound 4a, 3-(2-chlorophenyl)-5-hydroxy-4-methyl-chromen-2-one]	100	4.09	56.5%	37.3	0.13	0.79
Cc1c(-c2ccc(O)cc2)c(=O)oc2ccc(Br)cc12 [Compound 4i, 6-bromo-3-(4-hydroxyphenyl)-4-methyl-chromen-2-one]	99.9	3.23	no	100	0.043	1.26
CC(=O)Oc1cccc2oc(=O)c(-c3ccccc3F)c(C)c12 [Compound 3d, 5-acetyloxy-3-(2-fluorophenyl)-4-methyl-chromen-2-one]	99.7	2.56	no	100	0.149	0.73
Cc1c(-c2ccc(F)cc2)c(=O)oc2cccc(O)c12 [Compound 4f, 3-(4-fluorophenyl)-5-hydroxy-4-methyl-chromen-2-one]	99.7	2.62	64.2%	99.4	0.163	0.68
CC(=O)Oc1cccc2oc(=O)c(-c3ccc(Cl)cc3)c(C)c12 [Compound 3c, 5-acetyloxy-3-(4-chlorophenyl)-4-methyl-chromen-2-one]	99.9	3.05	15.0%	30.8	0.091	0.96
Cc1c(-c2ccccc2F)c(=O)oc2cccc(O)c12 [Compound 4d, 3-(2-fluorophenyl)-5-hydroxy-4-methyl-chromen-2-one]	100	4.69	73.3%	21.9	0.152	0.72
CC(=O)Oc1ccc(-c2c(C)c3cc(Br)cc(Br)c3oc2=O)cc1 [Compound 3k, 3-(4-acetyloxyphenyl)-6,8-dibromo-4-methyl-chromen-2-one]	99.9	3.91	no	92.9	0.013	1.63
CC(=O)Oc1cccc2oc(=O)c(-c3ccccc3Cl)c(C)c12 [Compound 3a, 5-acetyloxy-3-(2-chlorophenyl)-4-methyl-chromen-2-one]	100	3.58	no	97.0	0.202	0.57
Cc1c(-c2ccc(O)cc2)c(=O)oc2ccc(Cl)cc12 [Compound 4j, 6-chloro-3-(4-hydroxyphenyl)-4-methyl-chromen-2-one]	99.5	3.41	no	100	0.196	0.59
